According to patent US20260130933A1, “PHARMACEUTICAL COMPOSITION FOR PREVENTION OR TREATMENT OF NEPHROPATHY AND/OR DIABETES MELLITUS, COMPRISING ENAVOGLIFLOZIN” (DAEWOONG PHARMACEUTICAL CO., LTD., priority 2022, published 2026):

Assay: Example 2: phase 3 trial, enavogliflozin 0.3 mg vs dapagliflozin 10 mg once a day for 24 weeks added to metformin in patients with type 2 diabetes (same efficacy, exploratory and safety endpoints)
Assay type: in vivo, human
Description: Subjects who met the inclusion/exclusion criteria were administered a placebo of the clinical trial drug under single-blind (subject blinding) conditions during a 2-week run-in period while continuing to receive metformin. […] The randomized subjects were administered two tablets of the clinical trial drug for each administration group once a day, and then visited the institution at weeks 6, 12, 18, and 24 during the 24-week administration period to conduct efficacy and safety evaluations.
• 1. Change in HbA1c at week 24 after administration of clinical trial drug compared to Visit 2 (randomization)
• 1. Change in HbA1c at each time point of weeks 6, 12, and 18 after administration of clinical trial drug compared to Visit 2 (randomization) • 2. Change in FPG at each time point of weeks 6, 12, 18, and 24 after administration of clinical trial drug compared to Visit 2 (randomization) • 3. Proportion of subjects achieving HbA1c<7% at each time point of weeks 6, 12, 18, and 24 after administration of clinical trial drug • 4. Proportion of subjects achieving HbA1c<6.5% at each time point of weeks 6, 12, 18, and 24 after administration of clinical trial drug • 5. Proportion of subjects achieving therapeutic response (HbA1c change (HbA1c at Visit 2-HbA1c at each evaluation time point)>0.5% or HbA1c<7% at each evaluation time point compared to Visit 2 (randomization)) at each time point of weeks 6, 12, 18 and 24 after administration of clinical trial drug
• 1. Change in fasting c-peptide at each time point of weeks 6, 12, 18, and 24 after administration of clinical trial drug compared to Visit 2 (randomization) • 2. Change in body weight at each time point of weeks 6, 12, 18, and 24 after administration of clinical trial drug compared to Visit 2 (randomization) • 3. Change in fasting lipid concentration (total cholesterol, LDL-C, HDL-C, and triglycerides) at each time point of weeks 6, 12, 18, and 24 after administration of clinical trial drug compared to Visit 2 (randomization) • 4. Changes in systolic or diastolic blood pressure at each time point of weeks 6, 12, 18, and 24 after administration of clinical trial drug compared to Visit 2 (randomization) • 5. Changes in β-cell function and insulin resistance measured by HOMA-β and HOMA-IR at each time point of weeks 6, 12, 18, and 24 after administration of clinical trial drug compared to Visit 2 (randomization) • 6. Changes in renal function-related indicators (UACR, UGCR) measured by UACR at each time point of weeks 6, 12, 18, and 24 after administration of clinical trial drug compared to Visit 2 (randomization) • 7. Changes in obesity-related indicators (adiponectin, leptin) at each time point of weeks 6, 12, 18, and 24 after administration of clinical trial drug compared to Visit 2 (randomization)

[1] = week 6, modified per-protocol set 1, enavogliflozin 0.3 mg, dapagliflozin 10 mg
[2] = week 6, per-protocol set, enavogliflozin 0.3 mg, dapagliflozin 10 mg
[3] = week 12, modified per-protocol set 1, enavogliflozin 0.3 mg, dapagliflozin 10 mg

## CCOc1ccc(Cc2cc([C@@H]3O[C@H](CO)[C@@H](O)[C@H](O)[C@H]3O)ccc2Cl)cc1 [Dapagliflozin, reference compound]
Week 24, PPS
  HOMA-IR, Median: 1.82
  HOMA-β change from baseline, ANCOVA LS mean (SE): 11.93
  HOMA-β change from baseline, Mean (SD): 12.23
  HOMA-β change from baseline, Median: 5.30
  HOMA-β, Mean (SD): 56.67
  HOMA-β, Median: 46.75
  Leptin change from baseline, ANCOVA LS mean (SE): -1.28 ng/mL
  Leptin change from baseline, Mean (SD): -1.31 ng/mL
  Leptin change from baseline, Median: -1.17 ng/mL
  Leptin, Mean (SD): 10.37 ng/mL
  Leptin, Median: 6.69 ng/mL
  UACR change from baseline, ANCOVA LS mean (SE): -17.37 g/kg
  UACR change from baseline, Mean (SD): -25760 mg/kg
  UACR change from baseline, Median: -1.70 g/kg
  UACR, Mean (SD): 31370 mg/kg
  UACR, Median: 11.10 g/kg
  UGCR change from baseline, ANCOVA LS mean (SE): 44.94 mg/mg
  UGCR change from baseline, Mean (SD): 43.01 mg/mg
  UGCR change from baseline, Median: 42.01 mg/mg
  UGCR, Mean (SD): 45.27 mg/mg
  UGCR, Median: 43.81 mg/mg
Week 24, mPPS1
  HDL-C change from baseline, ANCOVA LS mean (SE): 3.19(0.66) mg/dL
  HDL-C change from baseline, Mean (SD): 3.55(5.30) mg/dL
  HDL-C change from baseline, Median: 3.00 mg/dL
  HDL-C, Mean (SD): 50.45(9.72) mg/dL
  HDL-C, Median: 50.00 mg/dL
  LDL-C change from baseline, ANCOVA LS mean (SE): 0.93(1.98) mg/dL
  LDL-C change from baseline, Mean (SD): 2.68(20.64) mg/dL
  LDL-C change from baseline, Median: 2.00 mg/dL
  LDL-C, Mean (SD): 78.84(25.81) mg/dL
  LDL-C, Median: 76.00 mg/dL
  Triglycerides change from baseline, ANCOVA LS mean (SE): −6.70(5.28) mg/dL
  Triglycerides change from baseline, Mean (SD): −10.64(52.51) mg/dL
  Triglycerides change from baseline, Median: -7.00 mg/dL
  Triglycerides, Mean (SD): 122.28(58.14) mg/dL
  Triglycerides, Median: 110.00 mg/dL
Week 24, mPPS2
  Diastolic blood pressure change from baseline, ANCOVA LS mean (SE): −4.26 mmHg
  Diastolic blood pressure change from baseline, Mean (SD): −3.87 mmHg
  Diastolic blood pressure change from baseline, Median: −4.00 mmHg
  Diastolic blood pressure, Mean (SD): 72.05 mmHg
  Diastolic blood pressure, Median: 71.00 mmHg
  Systolic blood pressure change from baseline, ANCOVA LS mean (SE): −6.57(1.04) mmHg
  Systolic blood pressure change from baseline, Mean (SD): −6.03(12.13) mmHg
  Systolic blood pressure change from baseline, Median: −7.00 mmHg
  Systolic blood pressure, Mean (SD): 121.40(11.90) mmHg
  Systolic blood pressure, Median: 122.00 mmHg
Week 6
  FPG change from baseline, LS mean (SE): −23.81(2.23) mg/dL
  HOMA-IR change from baseline, LS mean (SE): −1.31(0.15)
  HOMA-β change from baseline, LS mean (SE): −1.79(5.59)
  HbA1c change from baseline, LS mean (SE): −0.63(0.04) % p
  LDL-C change from baseline, LS mean (SE): 4.20(1.95) mg/dL
  Subjects achieving HbA1c target of <7%: (51.69) %
  Subjects achieving HbA1c<6.5%: 14.61%
  Subjects achieving therapeutic response (HbA1c change >0.5% or HbA1c<7%): 79.78%
  UACR change from baseline, LS mean (SE): 8.13(10.88) g/kg
  UGCR change from baseline, LS mean (SE): 50.10(2.80) mg/mg
  diastolic blood pressure change from baseline, LS mean (SE): −1.47(0.72) mmHg
  fasting c-peptide change from baseline, LS mean (SE): −0.07(0.02) ng/ml
  leptin change from baseline, LS mean (SE): −1.62(0.47) ng/mL
Week 6, listed as dapagliflozin
  Subjects achieving HbA1c target of <7%: 51.69%
[1]
  Change from baseline in Total cholesterol, ANCOVA LS mean (SE): 6.87(2.27) mg/dL
  Change from baseline in Total cholesterol, Mean (SD): 7.71(22.44) mg/dL
  Change from baseline in total cholesterol, Median: 7.00 mg/dL
  fasting Total cholesterol, Mean (SD): 145.62(31.91) mg/dL
  fasting Total cholesterol, Median: 145.50 mg/dL
[2]
  Change from baseline in FPG, ANCOVA LS mean (SE): -23.81 mg/dL
  Change from baseline in FPG, Mean (SD): -24.90 mg/dL
  Change from baseline in FPG, Median: -24.00 mg/dL
  Change from baseline in HbA1c, ANCOVA LS mean (SE): −0.63 % p
  Change from baseline in HbA1c, Mean (SD): −0.58 % p
  Change from baseline in HbA1c, Median: −0.59 % p
  Change from baseline in body weight, ANCOVA LS mean (SE): −1.61(0.21) kg
  Change from baseline in body weight, Mean (SD): −1.60(1.25) kg
  Change from baseline in body weight, Median: -1.50 kg
  Change from baseline in fasting c-peptide, ANCOVA LS mean (SE): −0.07(0.02) ng/mL
  Change from baseline in fasting c-peptide, Mean (SD): −0.07(0.18) ng/mL
  Change from baseline in fasting c-peptide, Median: -0.07 ng/mL
  FPG, Mean (SD): 124.37 mg/dL
  FPG, Median: 122.00 mg/dL
  HbA1c, Mean (SD): 7.10%
  HbA1c, Median: 6.98%
  Subjects achieving HbA1c target of <6.5%, (%): (14.61) %
  Subjects achieving therapeutic glycemic response, (%): (79.78) %
  body weight, Mean (SD): 68.88(11.86) kg
  body weight, Median: 66.90 kg
  fasting c-peptide, Mean (SD): 0.66(0.20) ng/mL
  fasting c-peptide, Median: 0.63 ng/mL
Week 12
  FPG change from baseline, LS mean (SE): −30.11(2.03) mg/dL
  HOMA-IR change from baseline, LS mean (SE): −1.60(0.17)
  HOMA-β change from baseline, LS mean (SE): 8.75(3.15)
  HbA1c change from baseline, LS mean (SE): −0.79(0.05) % p
  LDL-C change from baseline, LS mean (SE): 0.56(1.73) mg/dL
  Subjects achieving HbA1c target of <7%: (63.64) %
  Subjects achieving HbA1c<6.5%: 26.14%
  Subjects achieving therapeutic response (HbA1c change >0.5% or HbA1c<7%): 79.55%
  UACR change from baseline, LS mean (SE): −3.38(7.57) g/kg
  UGCR change from baseline, LS mean (SE): 45.14(2.66) mg/mg
  diastolic blood pressure change from baseline, LS mean (SE): −4.35(0.81) mmHg
  fasting c-peptide change from baseline, LS mean (SE): −0.09(0.02) ng/ml
  leptin change from baseline, LS mean (SE): −2.70(0.51) ng/mL
Week 12, listed as dapagliflozin
  Subjects achieving HbA1c target of <7%: 63.64%
[3]
  Change from baseline in Total cholesterol, ANCOVA LS mean (SE): 4.25(2.04) mg/dL
  Change from baseline in Total cholesterol, Mean (SD): 5.47(18.88) mg/dL
  Change from baseline in total cholesterol, Median: 5.00 mg/dL
